According to ChEMBL document CHEMBL5465560, “Selectivity Literature for EUbOPEN Chemogenomic Library” (2024):

Experiments:
[1] = molecular target: T1, Serine/threonine-protein kinase PLK4 (Homo sapiens) (UniProt O00444); assay: Selectivity interaction (KinomeScan (DiscoverX)) EUB0000229b PLK4; details: at 10 µM
T1 sequence (whole entry): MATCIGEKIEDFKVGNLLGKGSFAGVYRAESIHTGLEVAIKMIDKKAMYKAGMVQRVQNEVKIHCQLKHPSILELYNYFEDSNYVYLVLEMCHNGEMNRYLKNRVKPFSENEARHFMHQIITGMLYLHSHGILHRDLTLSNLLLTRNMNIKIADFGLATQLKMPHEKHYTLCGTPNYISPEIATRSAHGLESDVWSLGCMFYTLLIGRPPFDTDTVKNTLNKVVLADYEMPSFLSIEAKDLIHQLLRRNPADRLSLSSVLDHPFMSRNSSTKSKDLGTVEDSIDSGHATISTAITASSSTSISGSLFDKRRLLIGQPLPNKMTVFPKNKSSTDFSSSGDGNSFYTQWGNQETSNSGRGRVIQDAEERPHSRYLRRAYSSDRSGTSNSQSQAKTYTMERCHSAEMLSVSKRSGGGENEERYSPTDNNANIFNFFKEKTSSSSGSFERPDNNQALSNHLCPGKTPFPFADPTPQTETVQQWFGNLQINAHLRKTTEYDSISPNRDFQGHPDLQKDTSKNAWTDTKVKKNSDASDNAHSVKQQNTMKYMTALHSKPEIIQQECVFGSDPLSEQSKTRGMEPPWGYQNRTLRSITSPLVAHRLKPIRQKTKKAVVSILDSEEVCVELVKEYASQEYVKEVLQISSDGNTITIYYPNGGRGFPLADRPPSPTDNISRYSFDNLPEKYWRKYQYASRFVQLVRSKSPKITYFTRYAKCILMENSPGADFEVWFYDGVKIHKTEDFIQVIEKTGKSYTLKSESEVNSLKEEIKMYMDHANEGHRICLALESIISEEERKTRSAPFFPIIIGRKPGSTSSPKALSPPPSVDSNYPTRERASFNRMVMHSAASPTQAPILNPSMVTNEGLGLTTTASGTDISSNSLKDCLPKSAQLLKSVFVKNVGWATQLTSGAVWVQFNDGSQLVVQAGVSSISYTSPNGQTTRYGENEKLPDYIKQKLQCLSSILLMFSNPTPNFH

[2] = molecular target: Tyrosine-protein kinase Fgr (Homo sapiens) (UniProt P09769); assay: Selectivity interaction (Kinase panel (Z-LYTE Assay)) EUB0001632a FGR; details: at 10 µM
Chain of Tyrosine-protein kinase Fgr (Homo sapiens) (P09769 2-529 limits assumed): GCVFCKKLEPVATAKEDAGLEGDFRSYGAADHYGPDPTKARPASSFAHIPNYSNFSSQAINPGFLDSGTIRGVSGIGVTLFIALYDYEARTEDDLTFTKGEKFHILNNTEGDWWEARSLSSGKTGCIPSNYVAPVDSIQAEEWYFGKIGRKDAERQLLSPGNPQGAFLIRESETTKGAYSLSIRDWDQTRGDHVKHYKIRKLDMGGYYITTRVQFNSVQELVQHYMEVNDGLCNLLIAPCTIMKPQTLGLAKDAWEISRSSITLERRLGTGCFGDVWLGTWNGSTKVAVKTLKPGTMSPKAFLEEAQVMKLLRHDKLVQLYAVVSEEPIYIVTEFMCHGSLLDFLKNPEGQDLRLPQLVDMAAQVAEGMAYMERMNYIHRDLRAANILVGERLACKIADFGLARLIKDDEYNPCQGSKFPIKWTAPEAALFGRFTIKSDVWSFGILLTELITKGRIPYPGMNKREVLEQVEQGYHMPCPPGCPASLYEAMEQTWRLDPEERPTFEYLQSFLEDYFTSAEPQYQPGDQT

[3] = molecular target: Serine/threonine-protein kinase 38 (Homo sapiens) (UniProt Q15208); assay: Selectivity interaction (KinomeScan (DiscoverX)) EUB0001049a STK38; details: at 1 µM
Chain of Serine/threonine-protein kinase 38 (Homo sapiens) (Q15208 2-465 limits assumed): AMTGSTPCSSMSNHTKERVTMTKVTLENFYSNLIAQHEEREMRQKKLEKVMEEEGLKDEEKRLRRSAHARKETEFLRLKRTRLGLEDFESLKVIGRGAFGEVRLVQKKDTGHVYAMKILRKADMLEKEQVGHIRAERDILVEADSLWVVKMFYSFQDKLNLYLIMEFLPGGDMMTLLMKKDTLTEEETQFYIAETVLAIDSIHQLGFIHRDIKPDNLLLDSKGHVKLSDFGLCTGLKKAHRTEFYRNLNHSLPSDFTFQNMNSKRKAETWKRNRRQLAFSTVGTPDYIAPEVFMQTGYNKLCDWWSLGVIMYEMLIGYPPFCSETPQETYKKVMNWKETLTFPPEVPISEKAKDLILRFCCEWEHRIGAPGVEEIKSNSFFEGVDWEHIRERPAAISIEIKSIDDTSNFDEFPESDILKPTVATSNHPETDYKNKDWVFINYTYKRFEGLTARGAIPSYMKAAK

[4] = molecular target: T2, Tyrosine-protein kinase JAK3 (Homo sapiens, UniProt P52333); assay: Selectivity interaction (Kinase panel (33PanQinase(R) Activity Assay)) EUB0000877a JAK3
T2 sequence (P52333 whole entry): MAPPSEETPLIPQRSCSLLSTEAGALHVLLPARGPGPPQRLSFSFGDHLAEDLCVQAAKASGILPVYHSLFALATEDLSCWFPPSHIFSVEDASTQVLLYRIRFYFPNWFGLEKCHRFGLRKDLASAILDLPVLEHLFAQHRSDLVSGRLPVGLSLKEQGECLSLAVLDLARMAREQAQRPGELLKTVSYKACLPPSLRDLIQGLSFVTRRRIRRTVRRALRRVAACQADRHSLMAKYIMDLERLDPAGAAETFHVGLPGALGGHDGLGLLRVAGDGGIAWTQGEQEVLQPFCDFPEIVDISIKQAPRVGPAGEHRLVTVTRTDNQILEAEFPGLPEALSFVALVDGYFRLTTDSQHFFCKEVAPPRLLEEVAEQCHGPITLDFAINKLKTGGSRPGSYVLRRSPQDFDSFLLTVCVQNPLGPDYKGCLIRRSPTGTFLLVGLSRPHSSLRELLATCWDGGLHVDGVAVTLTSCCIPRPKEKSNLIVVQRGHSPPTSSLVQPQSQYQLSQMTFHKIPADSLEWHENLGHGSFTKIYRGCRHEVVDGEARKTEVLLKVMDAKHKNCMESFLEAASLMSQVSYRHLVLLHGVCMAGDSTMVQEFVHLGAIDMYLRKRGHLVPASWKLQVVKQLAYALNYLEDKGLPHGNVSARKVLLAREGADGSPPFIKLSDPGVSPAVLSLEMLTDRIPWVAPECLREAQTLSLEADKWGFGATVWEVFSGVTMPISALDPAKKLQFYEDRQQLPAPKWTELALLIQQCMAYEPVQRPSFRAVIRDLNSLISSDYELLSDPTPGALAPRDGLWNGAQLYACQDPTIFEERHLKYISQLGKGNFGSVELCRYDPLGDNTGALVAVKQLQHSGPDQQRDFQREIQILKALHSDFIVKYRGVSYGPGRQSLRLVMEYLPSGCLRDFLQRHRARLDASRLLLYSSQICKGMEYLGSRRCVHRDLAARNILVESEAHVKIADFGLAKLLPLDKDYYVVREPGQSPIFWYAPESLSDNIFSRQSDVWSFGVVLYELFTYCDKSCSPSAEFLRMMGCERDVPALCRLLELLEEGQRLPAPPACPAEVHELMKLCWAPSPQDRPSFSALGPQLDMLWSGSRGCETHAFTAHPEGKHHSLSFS

[5] = molecular target: Phosphatidylinositol 4-kinase type 2-beta (Homo sapiens) (UniProt Q8TCG2); assay: Selectivity interaction (ProQinase) EUB0000171b PI4K2B
Chain of Phosphatidylinositol 4-kinase type 2-beta (Homo sapiens) (Q8TCG2 whole entry): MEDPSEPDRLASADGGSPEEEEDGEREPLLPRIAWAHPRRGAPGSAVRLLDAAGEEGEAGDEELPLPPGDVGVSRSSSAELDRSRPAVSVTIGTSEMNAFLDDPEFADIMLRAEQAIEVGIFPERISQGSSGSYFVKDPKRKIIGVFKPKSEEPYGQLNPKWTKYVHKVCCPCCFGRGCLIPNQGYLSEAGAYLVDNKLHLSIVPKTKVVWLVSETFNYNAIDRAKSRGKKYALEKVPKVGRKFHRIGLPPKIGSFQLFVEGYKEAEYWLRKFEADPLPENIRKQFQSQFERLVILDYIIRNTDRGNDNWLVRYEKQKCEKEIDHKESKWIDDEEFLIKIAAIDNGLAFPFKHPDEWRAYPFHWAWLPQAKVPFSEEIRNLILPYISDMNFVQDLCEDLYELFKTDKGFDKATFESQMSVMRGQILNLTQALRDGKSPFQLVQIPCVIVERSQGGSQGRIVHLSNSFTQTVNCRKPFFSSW

[6] = molecular target: Ribosomal protein S6 kinase beta-1 (Homo sapiens, UniProt P23443); assay: Selectivity interaction (Kinase panel (Invitrogen)) EUB0000639a RPS6KB1; details: at 200 nM
Chain of Ribosomal protein S6 kinase beta-1 (P23443 whole entry, looked up): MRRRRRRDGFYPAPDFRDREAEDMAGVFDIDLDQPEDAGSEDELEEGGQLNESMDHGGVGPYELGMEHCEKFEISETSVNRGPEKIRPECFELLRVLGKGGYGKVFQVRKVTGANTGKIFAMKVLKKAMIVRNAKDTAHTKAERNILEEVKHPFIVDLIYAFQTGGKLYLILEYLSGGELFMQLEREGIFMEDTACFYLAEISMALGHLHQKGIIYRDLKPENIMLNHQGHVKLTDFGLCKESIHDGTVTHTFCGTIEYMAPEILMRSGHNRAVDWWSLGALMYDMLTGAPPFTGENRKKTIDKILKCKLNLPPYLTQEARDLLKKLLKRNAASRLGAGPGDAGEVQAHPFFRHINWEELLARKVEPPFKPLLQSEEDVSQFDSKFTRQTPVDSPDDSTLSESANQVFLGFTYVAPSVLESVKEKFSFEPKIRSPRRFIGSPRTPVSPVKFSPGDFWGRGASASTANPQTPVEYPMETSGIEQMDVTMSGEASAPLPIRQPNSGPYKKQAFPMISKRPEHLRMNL

[7] = molecular target: Serine/threonine-protein kinase Nek7 (Homo sapiens) (UniProt Q8TDX7); assay: Selectivity interaction (ActivX KiNativ screen (kinase selectivity in THP-1 cell lysates)) EUB0000639a NEK7; assay type: subcellular; details: lysate, at 0.04 µM
Chain of Serine/threonine-protein kinase Nek7 (Homo sapiens) (Q8TDX7 whole entry, looked up, canonical isoform): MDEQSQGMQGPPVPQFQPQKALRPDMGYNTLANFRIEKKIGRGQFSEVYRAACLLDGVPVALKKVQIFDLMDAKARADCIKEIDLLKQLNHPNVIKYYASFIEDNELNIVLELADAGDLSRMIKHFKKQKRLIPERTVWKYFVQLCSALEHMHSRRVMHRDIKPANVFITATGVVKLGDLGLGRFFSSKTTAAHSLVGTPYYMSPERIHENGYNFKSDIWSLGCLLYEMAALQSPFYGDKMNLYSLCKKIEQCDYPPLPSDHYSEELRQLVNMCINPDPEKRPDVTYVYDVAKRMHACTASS

[8] = molecular target: Serine/threonine-protein kinase Nek7 (Homo sapiens) (UniProt Q8TDX7); assay: Selectivity interaction (KinomeScan (DiscoverX)) EUB0000092b NEK7; details: at 10 µM
[9] = molecular target: T3, Phosphorylase b kinase gamma catalytic chain, liver/testis isoform (Homo sapiens) (UniProt P15735); assay: Selectivity interaction (Ambit KINOMEscan and KiNATiv profiling in Jurkat cells) EUB0000090b PHKG2; assay type: cell-based; details: at 1 µM
T3 sequence (whole entry): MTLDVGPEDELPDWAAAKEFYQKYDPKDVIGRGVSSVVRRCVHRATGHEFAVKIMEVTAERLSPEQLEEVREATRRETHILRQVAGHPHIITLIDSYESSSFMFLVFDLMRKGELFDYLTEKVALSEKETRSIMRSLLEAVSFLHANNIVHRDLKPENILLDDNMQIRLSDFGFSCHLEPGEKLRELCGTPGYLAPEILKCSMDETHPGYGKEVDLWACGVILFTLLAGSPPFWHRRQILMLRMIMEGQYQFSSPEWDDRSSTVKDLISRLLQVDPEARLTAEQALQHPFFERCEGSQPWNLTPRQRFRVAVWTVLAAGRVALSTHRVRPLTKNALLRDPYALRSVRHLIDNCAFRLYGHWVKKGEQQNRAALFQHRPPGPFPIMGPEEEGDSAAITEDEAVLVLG

**Q.** `COc1cc(N(C)c2ccnc3ccc(C(F)(F)F)cc23)cc(OC)c1OC` was tested. Which % binding [1] did it give?
**A.** The % binding was 99%.

**Q.** For `Cn1cc(-n2cnc3c(NCc4nc5cc(Cl)c(Cl)cc5[nH]4)nc(N4CCOCC4)nc32)cn1`, which % of control [2] is on record?
**A.** The % of control was 1.86%.

**Q.** With `COc1cc(Nc2nc(C)cc(-c3cnn4nc(OC)ccc34)n2)cc(C(F)(F)F)c1` as the compound, how does the % of control [3] read?
**A.** Its % of control is 90%.

**Q.** For `CCC(=O)N1CC[C@H](Nc2ncnc3c2CN(c2cnc(OC)c(C(F)(F)F)c2)CC3)C1` [LENIOLISIB], which IC50 [4] is on record?
**A.** The IC50 was greater than 10 µM.

**Q.** With `C=CC(=O)Nc1cccc(C(=O)Nc2ccc(Nc3cc(-c4[nH]c(SC)nc4C)ccn3)cc2)c1` as the compound, how does the % of control ([5]; at 1 µM) read?
**A.** Its % of control is 128%.

**Q.** What about the % of control ([5]; at 5 µM) of the same compound?
**A.** The % of control was 120%.

**Q.** Which results are given for `CC[C@@H]1[C@H](F)C(=O)N[C@@H]1COc1nccc2cc(C(N)=O)c(OC)cc12` [ZIMLOVISERTIB]?
**A.** % of inhibition [6]: 17.4%; % of inhibition [7]: 1.5%

**Q.** For `CCC(=O)N1CCN(c2ccc(-n3c(=O)ccc4cnc5ccc(-c6cnc7ccccc7c6)cc5c43)cc2C(F)(F)F)CC1`, which % of control [8] is on record?
**A.** The % of control was 90%.

**Q.** With `CN(C)C/C=C/C(=O)Nc1ccc(C(=O)N2CCCC(Nc3ncc(Cl)c(-c4c[nH]c5ccccc45)n3)C2)cc1` (stereo not given) as the compound, how does the % of control [9] read?
**A.** Its % of control is 94%.
